{"source": "ChEMBL document CHEMBL5537159", "about": "“Discovery and SAR of JTE-151: A Novel RORγ Inhibitor for Clinical Development” (J Med Chem, 2024)", "key": {"[1]": {"assay": "Oral bioavailability in CD(SD) rat at 10 mg/kg administered as single dose and measured after 24 hrs", "format": "ADME, organism-based", "conditions": "in vivo"}, "[2]": {"assay": "Elimination half life in C57BL/6J mouse at 1 mg/kg, iv administered as single dose and measured after 24 hrs", "format": "ADME, organism-based", "conditions": "in vivo, read-out: beta t1/2 (converted)"}, "[3]": {"assay": "Genotoxicity in Salmonella typhimurium TA1535 at 188 to 5000 ug in presence of S9 fraction by bacterial reverse mutation test", "format": "toxicity, subcellular, Salmonella enterica subsp. enterica serovar Typhimurium", "conditions": "dose 188-5000 µg"}, "[4]": {"assay": "AUCinfinity in Beagle dog at 3 mg/kg, po administered as single dose and measured after 24 hrs", "format": "ADME, organism-based, Canis lupus familiaris", "conditions": "in vivo"}, "[5]": {"assay": "Inhibition of rat Muscarinic receptor"}, "[6]": {"assay": "Volume of distribution at steady state in CD(SD) rat at 1 mg/kg, iv administered as single dose and measured after 24 hrs", "format": "ADME, organism-based", "conditions": "in vivo, read-out: Vdss"}, "[7]": {"target": "5-hydroxytryptamine receptor 1A (Homo sapiens, UniProt P08908)", "sequence (P08908 whole entry)": "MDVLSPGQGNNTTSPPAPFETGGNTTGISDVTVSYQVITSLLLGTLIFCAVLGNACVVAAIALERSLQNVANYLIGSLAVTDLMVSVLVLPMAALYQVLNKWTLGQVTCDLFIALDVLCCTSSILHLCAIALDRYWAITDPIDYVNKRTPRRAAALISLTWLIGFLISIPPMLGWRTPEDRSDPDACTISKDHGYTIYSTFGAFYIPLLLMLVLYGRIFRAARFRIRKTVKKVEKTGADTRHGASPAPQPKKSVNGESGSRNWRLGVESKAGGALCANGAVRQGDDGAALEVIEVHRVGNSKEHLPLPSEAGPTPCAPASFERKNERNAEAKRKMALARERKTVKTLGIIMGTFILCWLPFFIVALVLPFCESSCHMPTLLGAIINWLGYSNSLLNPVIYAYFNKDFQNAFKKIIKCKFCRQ", "assay": "Inhibition of human 5-HT1A receptor"}, "[8]": {"assay": "Elimination half life in human at 30 mg/kg, po administered as single dose and measured upto 144 hrs", "format": "ADME, organism-based", "conditions": "in vivo, read-out: beta t1/2 (converted)"}, "[9]": {"assay": "Toxicity in CHL cells assessed as chromosomal aberration at 60 to 80 ug/ml incubated for 6 hrs in absence of S9 fraction", "format": "cell-based, Cricetulus griseus", "conditions": "chinese hamster, dose 60-80 µg/ml"}, "Histamine H2 receptor": {"target": "Histamine H2 receptor (Homo sapiens, UniProt P25021)", "sequence (P25021 whole entry)": "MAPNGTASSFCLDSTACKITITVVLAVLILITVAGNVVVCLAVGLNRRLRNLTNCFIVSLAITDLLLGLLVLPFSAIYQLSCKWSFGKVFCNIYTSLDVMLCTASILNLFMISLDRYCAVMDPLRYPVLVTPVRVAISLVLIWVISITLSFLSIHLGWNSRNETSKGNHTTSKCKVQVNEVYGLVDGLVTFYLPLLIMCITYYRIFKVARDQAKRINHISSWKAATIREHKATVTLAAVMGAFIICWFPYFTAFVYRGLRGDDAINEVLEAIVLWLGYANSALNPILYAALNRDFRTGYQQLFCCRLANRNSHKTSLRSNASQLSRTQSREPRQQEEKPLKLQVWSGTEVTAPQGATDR", "assay": "Inhibition of human histamine H2 receptor"}, "[10]": {"assay": "Cmax in human at 400 […], po administered as single dose and measured upto 144 hrs", "format": "ADME, organism-based", "conditions": "in vivo"}, "[11]": {"assay": "Toxicity in CHL cells assessed as chromosomal aberration at 30 to 50 ug/ml incubated for 24 hrs in presence of S9 fraction", "format": "subcellular, Cricetulus griseus", "conditions": "chinese hamster, s9, 24 h, dose 30-50 µg/ml"}, "[12]": {"assay": "Genotoxicity in Salmonella typhimurium TA98 at 47 to 1500 ug in presence of S9 fraction by bacterial reverse mutation test", "format": "toxicity, subcellular, Salmonella enterica subsp. enterica serovar Typhimurium", "conditions": "dose 47-1500 µg"}, "[13]": {"assay": "Toxicity in Beagle dog assessed as development-limiting toxicity at 30 to 100 mg/kg, po administered once daily and measured on day 1,14 and 28", "format": "organism-based, Canis lupus familiaris", "conditions": "in vivo, 672 h, dose 30-100 mg/kg, time 28 day"}, "[14]": {"target": "Voltage-gated inwardly rectifying potassium channel KCNH2 (Homo sapiens, UniProt Q12809)", "sequence (Q12809 whole entry)": "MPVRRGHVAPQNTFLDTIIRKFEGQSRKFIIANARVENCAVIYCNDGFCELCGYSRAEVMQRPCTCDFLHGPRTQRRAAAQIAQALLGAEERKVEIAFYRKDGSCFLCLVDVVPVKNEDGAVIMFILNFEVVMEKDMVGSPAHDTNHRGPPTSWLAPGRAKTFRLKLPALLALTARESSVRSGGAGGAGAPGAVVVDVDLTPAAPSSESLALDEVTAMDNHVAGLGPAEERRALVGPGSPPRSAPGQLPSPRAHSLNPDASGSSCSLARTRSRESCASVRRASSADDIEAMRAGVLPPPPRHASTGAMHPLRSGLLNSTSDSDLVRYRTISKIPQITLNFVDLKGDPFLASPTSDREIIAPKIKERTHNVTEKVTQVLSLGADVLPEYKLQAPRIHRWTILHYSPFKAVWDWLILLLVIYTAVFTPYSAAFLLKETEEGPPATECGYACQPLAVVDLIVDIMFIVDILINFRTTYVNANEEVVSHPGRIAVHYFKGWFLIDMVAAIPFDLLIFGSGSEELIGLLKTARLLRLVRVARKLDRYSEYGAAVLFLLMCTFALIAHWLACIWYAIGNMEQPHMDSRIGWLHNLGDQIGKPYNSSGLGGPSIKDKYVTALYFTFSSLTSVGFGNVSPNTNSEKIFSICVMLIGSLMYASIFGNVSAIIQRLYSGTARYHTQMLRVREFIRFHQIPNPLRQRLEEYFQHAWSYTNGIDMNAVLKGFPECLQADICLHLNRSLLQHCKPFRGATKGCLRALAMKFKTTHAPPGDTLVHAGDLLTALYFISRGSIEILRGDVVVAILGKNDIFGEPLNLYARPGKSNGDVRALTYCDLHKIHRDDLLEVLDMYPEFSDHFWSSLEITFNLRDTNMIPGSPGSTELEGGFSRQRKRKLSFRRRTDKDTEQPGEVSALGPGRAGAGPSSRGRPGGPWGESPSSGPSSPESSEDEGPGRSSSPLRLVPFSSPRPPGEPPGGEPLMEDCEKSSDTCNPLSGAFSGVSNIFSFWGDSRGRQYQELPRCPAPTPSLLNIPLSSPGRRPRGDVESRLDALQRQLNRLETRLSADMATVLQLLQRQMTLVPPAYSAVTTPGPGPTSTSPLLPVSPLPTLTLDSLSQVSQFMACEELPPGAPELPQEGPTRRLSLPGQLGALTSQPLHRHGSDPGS", "assay": "Inhibition of hERG transfected in HEK293 cells by whole cell patch-clamp method", "format": "toxicity, cell-based"}, "[15]": {"assay": "Elimination half life in human at 400 mg/kg, po administered as single dose and measured upto 144 hrs", "format": "ADME, organism-based", "conditions": "in vivo, read-out: beta t1/2 (converted)"}, "[16]": {"assay": "Selectivity ratio of agonist activity at human PPARgamma to inhibition of RORgamma (unknown origin)"}, "[17]": {"assay": "Total body clearance in CD(SD) rat at 1 mg/kg, iv administered as single dose and measured after 24 hrs", "format": "ADME, organism-based", "conditions": "in vivo"}, "[18]": {"assay": "Elimination half life in human at 100 […], po administered as single dose and measured upto 144 hrs", "format": "ADME, organism-based", "conditions": "in vivo, read-out: beta t1/2 (converted)"}, "[19]": {"target": "Voltage-gated L-type calcium channel (Rattus norvegicus, UniProt P22002+Q02485+P27732)", "assay": "Inhibition of rat L-type Ca2+ channel", "format": "protein assay"}, "[20]": {"assay": "Selectivity ratio of agonist activity at human PR to inhibition of RORgamma (unknown origin)"}, "Mus musculus": {"test_system": "Mus musculus", "assay": "Anti-inflammatory activity in complete Freund's adjuvant/MOG (35 to 55 residues)/pertussis toxin-induced experimental autoimmune encephalomyelitis C57BL/6 mouse model assessed as reduction in Th17 cell differentiation by measuring reduction in number of Th17 cells in spinal cords at 3 to 10 mg/kg, po administered once daily for 17 days and measured on day 18 by flow cytometry analysis", "format": "functional, organism-based", "conditions": "dose 3-10 mg/kg, time 18.0 day"}, "[21]": {"assay": "Elimination half life in cynomolgus monkey at 1 mg/kg, iv administered as single dose and measured after 24 hrs", "format": "ADME, organism-based, Macaca fascicularis", "conditions": "in vivo, read-out: beta t1/2 (converted)"}, "[22]": {"assay": "Tmax in human at 30 […], po administered as single dose and measured upto 144 hrs", "format": "ADME, organism-based", "conditions": "in vivo"}, "[23]": {"assay": "Genotoxicity in Salmonella typhimurium TA1537 at 47 to 1500 ug in presence of S9 fraction by bacterial reverse mutation test", "format": "toxicity, subcellular, Salmonella enterica subsp. enterica serovar Typhimurium", "conditions": "dose 47-1500 µg"}, "[24]": {"target": "Amine oxidase [flavin-containing] A (Homo sapiens, UniProt P21397)", "sequence (P21397 whole entry)": "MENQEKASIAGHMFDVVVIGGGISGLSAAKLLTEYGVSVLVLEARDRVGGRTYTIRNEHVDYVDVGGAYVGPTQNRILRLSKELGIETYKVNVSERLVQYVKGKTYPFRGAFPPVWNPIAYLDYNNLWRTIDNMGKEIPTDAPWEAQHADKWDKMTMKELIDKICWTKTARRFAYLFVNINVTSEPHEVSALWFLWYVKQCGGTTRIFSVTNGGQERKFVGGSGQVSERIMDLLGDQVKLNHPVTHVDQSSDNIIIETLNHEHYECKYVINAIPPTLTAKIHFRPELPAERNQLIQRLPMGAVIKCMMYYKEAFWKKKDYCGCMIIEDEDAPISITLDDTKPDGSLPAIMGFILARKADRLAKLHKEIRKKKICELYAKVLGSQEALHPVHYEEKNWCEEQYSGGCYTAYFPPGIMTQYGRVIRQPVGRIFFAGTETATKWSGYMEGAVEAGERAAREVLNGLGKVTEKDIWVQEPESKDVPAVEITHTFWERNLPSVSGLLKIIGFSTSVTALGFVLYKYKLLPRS", "assay": "Inhibition of human MAO-A"}, "Cytochrome P450 2A6": {"target": "Cytochrome P450 2A6 (Homo sapiens, UniProt P11509)", "sequence (P11509 whole entry)": "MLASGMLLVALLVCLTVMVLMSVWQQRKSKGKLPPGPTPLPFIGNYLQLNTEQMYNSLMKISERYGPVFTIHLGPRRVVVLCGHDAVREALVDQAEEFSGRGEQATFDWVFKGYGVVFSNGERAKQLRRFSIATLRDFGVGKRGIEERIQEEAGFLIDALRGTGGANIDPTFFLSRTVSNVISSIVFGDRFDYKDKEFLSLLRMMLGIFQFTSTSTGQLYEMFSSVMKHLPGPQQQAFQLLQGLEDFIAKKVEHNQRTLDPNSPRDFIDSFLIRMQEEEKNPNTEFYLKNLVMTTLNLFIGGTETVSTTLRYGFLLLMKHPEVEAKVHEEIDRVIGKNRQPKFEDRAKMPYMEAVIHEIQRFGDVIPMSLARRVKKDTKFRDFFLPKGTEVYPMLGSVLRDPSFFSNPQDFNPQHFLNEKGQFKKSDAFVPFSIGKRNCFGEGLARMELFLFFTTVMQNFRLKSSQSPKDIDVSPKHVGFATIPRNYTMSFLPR", "assay": "Inhibition of CYP2A6 in human liver microsomes", "format": "ADME, Microsome"}, "[25]": {"assay": "AUCinfinity in CD(SD) rat at 10 mg/kg, po administered as single dose and measured after 24 hrs", "format": "ADME, organism-based", "conditions": "in vivo"}, "[26]": {"assay": "Lipophilicity, logD of compound by RP-HPLC analysis", "format": "physicochemical"}, "[27]": {"assay": "AUClast in human at 30 mg/kg, po administered as single dose and measured upto 144 hrs", "format": "ADME, organism-based", "conditions": "in vivo"}, "[28]": {"assay": "Selectivity ratio of antagonist activity at human RORalpha to inhibition of RORgamma (unknown origin)"}, "[29]": {"assay": "Cmax in human at 60 […], po administered as single dose and measured upto 144 hrs", "format": "ADME, organism-based", "conditions": "in vivo"}, "[30]": {"assay": "Genotoxicity in Salmonella typhimurium TA98 at 23 to 750 ug in absence of S9 fraction by bacterial reverse mutation test", "format": "toxicity, Salmonella enterica subsp. enterica serovar Typhimurium", "conditions": "in vivo; dose 23-750 µg"}, "[31]": {"assay": "Selectivity ratio of antagonist activity at human SF1 to inhibition of RORgamma (unknown origin)"}, "[32]": {"assay": "Selectivity ratio of antagonist activity at mouse GR to inhibition of RORgamma (unknown origin)"}, "[33]": {"assay": "Genotoxicity in Salmonella typhimurium TA100 at 23 to 750 ug in absence of S9 fraction by bacterial reverse mutation test", "format": "toxicity, Salmonella enterica subsp. enterica serovar Typhimurium", "conditions": "in vivo; dose 23-750 µg"}, "Histamine H1 receptor": {"target": "Histamine H1 receptor (Homo sapiens, UniProt P35367)", "sequence (P35367 whole entry)": "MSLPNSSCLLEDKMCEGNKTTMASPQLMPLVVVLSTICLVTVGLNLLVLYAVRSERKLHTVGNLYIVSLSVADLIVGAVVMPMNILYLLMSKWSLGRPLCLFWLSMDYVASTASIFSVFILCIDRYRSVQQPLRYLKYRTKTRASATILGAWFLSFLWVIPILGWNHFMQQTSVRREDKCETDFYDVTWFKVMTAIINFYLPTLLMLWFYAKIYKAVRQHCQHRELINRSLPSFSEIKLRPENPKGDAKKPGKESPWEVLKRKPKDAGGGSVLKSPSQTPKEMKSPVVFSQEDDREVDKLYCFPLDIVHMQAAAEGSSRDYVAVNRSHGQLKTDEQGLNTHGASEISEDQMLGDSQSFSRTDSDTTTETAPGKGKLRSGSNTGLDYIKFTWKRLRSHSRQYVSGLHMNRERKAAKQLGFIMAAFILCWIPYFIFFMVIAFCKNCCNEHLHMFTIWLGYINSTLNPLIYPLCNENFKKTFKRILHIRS", "assay": "Inhibition of human histamine H1 receptor"}, "[34]": {"assay": "Total body clearance in cynomolgus monkey at 1 mg/kg, iv administered as single dose and measured after 24 hrs", "format": "ADME, organism-based, Macaca fascicularis", "conditions": "in vivo"}, "[35]": {"assay": "Selectivity ratio of agonist activity at human VDR to inhibition of RORgamma (unknown origin)"}, "[36]": {"assay": "Selectivity ratio of agonist activity at human RXRalpha to inhibition of RORgamma (unknown origin)"}, "Cytochrome P450 3A4": {"target": "Cytochrome P450 3A4 (Homo sapiens, UniProt P08684)", "sequence (P08684 whole entry)": "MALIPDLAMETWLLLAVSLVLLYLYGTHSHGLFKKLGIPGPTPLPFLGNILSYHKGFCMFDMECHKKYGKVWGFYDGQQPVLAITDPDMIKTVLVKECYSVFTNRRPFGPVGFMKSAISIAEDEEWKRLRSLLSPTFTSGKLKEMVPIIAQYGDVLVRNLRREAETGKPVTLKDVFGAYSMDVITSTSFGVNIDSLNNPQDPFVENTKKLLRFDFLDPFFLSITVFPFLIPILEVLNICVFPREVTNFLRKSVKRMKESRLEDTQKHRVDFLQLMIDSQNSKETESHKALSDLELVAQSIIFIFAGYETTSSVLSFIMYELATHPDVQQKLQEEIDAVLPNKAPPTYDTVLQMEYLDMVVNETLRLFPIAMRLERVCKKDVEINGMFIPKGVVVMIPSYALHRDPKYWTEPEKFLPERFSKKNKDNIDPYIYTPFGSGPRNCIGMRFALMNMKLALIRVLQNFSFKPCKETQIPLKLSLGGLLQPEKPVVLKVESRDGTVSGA", "assay": "Inhibition of CYP3A4 in human liver microsomes using midazolam as substrate", "format": "ADME, Microsome"}, "[37]": {"assay": "Cardiotoxicity in Beagle dog assessed as QTcF prolongation upto 100 mg/kg, po bid measured for 24 hrs", "format": "toxicity, organism-based, Canis lupus familiaris", "conditions": "in vivo"}, "[38]": {"assay": "Genotoxicity in Salmonella typhimurium TA1535 at 188 to 5000 ug in absence of S9 fraction by bacterial reverse mutation test", "format": "toxicity, Salmonella enterica subsp. enterica serovar Typhimurium", "conditions": "in vivo; dose 188-5000 µg"}, "Cytochrome P450 1A2": {"target": "Cytochrome P450 1A2 (Homo sapiens, UniProt P05177)", "sequence (P05177 whole entry)": "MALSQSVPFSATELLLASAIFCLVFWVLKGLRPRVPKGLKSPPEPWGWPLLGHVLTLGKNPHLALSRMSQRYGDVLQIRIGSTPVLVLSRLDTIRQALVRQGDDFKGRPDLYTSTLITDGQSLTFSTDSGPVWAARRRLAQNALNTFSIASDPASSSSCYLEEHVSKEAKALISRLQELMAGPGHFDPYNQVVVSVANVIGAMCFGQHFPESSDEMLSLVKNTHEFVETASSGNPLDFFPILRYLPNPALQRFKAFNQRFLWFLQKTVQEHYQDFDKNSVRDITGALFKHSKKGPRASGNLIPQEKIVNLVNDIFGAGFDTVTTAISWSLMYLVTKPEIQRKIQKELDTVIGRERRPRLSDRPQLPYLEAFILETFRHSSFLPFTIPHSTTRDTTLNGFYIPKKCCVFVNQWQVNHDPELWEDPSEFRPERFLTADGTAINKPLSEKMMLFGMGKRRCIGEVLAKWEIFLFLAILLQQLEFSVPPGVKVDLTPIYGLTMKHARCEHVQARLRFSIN", "assay": "Inhibition of CYP1A2 in human liver microsomes", "format": "ADME, Microsome"}, "Cytochrome P450 2C19": {"target": "Cytochrome P450 2C19 (Homo sapiens, UniProt P33261)", "sequence (P33261 whole entry)": "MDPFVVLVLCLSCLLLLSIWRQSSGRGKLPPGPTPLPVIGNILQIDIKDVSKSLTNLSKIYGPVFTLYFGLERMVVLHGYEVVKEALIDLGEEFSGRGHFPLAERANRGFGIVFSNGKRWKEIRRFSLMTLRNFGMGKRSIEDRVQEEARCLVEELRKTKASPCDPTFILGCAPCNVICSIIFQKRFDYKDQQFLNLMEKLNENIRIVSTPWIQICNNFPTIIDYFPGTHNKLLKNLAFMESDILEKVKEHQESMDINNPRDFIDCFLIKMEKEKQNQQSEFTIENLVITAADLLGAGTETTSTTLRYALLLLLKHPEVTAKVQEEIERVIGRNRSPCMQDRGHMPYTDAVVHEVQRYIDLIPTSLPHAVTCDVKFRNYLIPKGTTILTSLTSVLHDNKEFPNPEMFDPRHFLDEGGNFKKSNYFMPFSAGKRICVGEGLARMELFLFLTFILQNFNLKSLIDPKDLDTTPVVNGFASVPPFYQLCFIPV", "assay": "Inhibition of CYP2C19 in human liver microsomes", "format": "ADME, Microsome"}, "[39]": {"assay": "Tmax in human at 600 […], po administered as single dose and measured upto 144 hrs", "format": "ADME, organism-based", "conditions": "in vivo"}}, "note": "Active and inactive are the calls of the source. The calls are words filed in the database; no cut-off is given here.", "data": [{"smiles": "Cc1ccc(NC(=O)C[C@H](CCC(=O)O)c2noc([C@H]3C[C@@H](CC(C)(C)C)C3)c2C2CC2)c(Cl)c1", "values": [{"measurement": "bioavailability", "setting": "[1]", "value": 106, "unit": "%"}, {"measurement": "half-life", "setting": "[2]", "value": 228, "unit": "min"}, {"measurement": "Activity", "setting": "[3]", "value": "Non-Toxic"}, {"measurement": "AUC(0-inf)", "setting": "[4]", "value": 118, "unit": "µM·h"}, {"measurement": "IC50", "setting": "[5]", "value": "> 10", "unit": "µM"}, {"measurement": "Vd", "setting": "[6]", "value": 0.34, "unit": "L/kg"}, {"measurement": "IC50", "setting": "[7]", "value": "> 10", "unit": "µM"}, {"measurement": "half-life", "setting": "[8]", "value": 338, "unit": "min"}, {"measurement": "Activity", "setting": "[9]", "value": "Non-Toxic"}, {"measurement": "IC50", "setting": "Histamine H2 receptor", "value": "> 10", "unit": "µM"}, {"measurement": "Cmax", "setting": "[10]", "value": 17500, "unit": "ng/mL"}, {"measurement": "Activity", "setting": "[11]", "value": "Non-Toxic"}, {"measurement": "Activity", "setting": "[12]", "value": "Non-Toxic"}, {"measurement": "Activity", "setting": "[13]", "value": "Non-Toxic"}, {"measurement": "IC50", "setting": "[14]", "value": 7.4, "unit": "µM"}, {"measurement": "half-life", "setting": "[15]", "value": 445, "unit": "min"}, {"measurement": "Selectivity ratio", "setting": "[16]", "value": "> 100"}, {"measurement": "clearance", "setting": "[17]", "value": 1.83, "unit": "mL/min/kg"}, {"measurement": "half-life", "setting": "[18]", "value": 792, "unit": "min"}, {"measurement": "IC50", "setting": "[19]", "value": "> 10", "unit": "µM"}, {"measurement": "Selectivity ratio", "setting": "[20]", "value": "> 100"}, {"measurement": "Activity", "setting": "Mus musculus", "value": "Active"}, {"measurement": "half-life", "setting": "[21]", "value": 354, "unit": "min"}, {"measurement": "Tmax", "setting": "[22]", "value": 2.77, "unit": "h"}, {"measurement": "Activity", "setting": "[23]", "value": "Non-Toxic"}, {"measurement": "IC50", "setting": "[24]", "value": "> 10", "unit": "µM"}, {"measurement": "IC50", "setting": "Cytochrome P450 2A6", "value": "> 10", "unit": "µM"}, {"measurement": "AUC(0-inf)", "setting": "[25]", "value": 191, "unit": "µM·h"}, {"measurement": "logD", "setting": "[26]", "value": 5.1}, {"measurement": "AUC(0-t) at 144 h", "setting": "[27]", "value": 6030, "unit": "ng·h/mL"}, {"measurement": "Selectivity ratio", "setting": "[28]", "value": "> 100"}, {"measurement": "Cmax", "setting": "[29]", "value": 2260, "unit": "ng/mL"}, {"measurement": "Activity", "setting": "[30]", "value": "Non-Toxic"}, {"measurement": "Selectivity ratio", "setting": "[31]", "value": "> 100"}, {"measurement": "Selectivity ratio", "setting": "[32]", "value": "> 100"}, {"measurement": "Activity", "setting": "[33]", "value": "Non-Toxic"}, {"measurement": "IC50", "setting": "Histamine H1 receptor", "value": "> 10", "unit": "µM"}, {"measurement": "clearance", "setting": "[34]", "value": 3.17, "unit": "mL/min/kg"}, {"measurement": "Selectivity ratio", "setting": "[35]", "value": "> 100"}, {"measurement": "Selectivity ratio", "setting": "[36]", "value": "> 100"}, {"measurement": "IC50", "setting": "Cytochrome P450 3A4", "value": "> 10", "unit": "µM"}, {"measurement": "Activity", "setting": "[37]", "value": "Non-Toxic"}, {"measurement": "Activity", "setting": "[38]", "value": "Non-Toxic"}, {"measurement": "IC50", "setting": "Cytochrome P450 1A2", "value": "> 10", "unit": "µM"}, {"measurement": "IC50", "setting": "Cytochrome P450 2C19", "value": "> 10", "unit": "µM"}, {"measurement": "Tmax", "setting": "[39]", "value": 3, "unit": "h"}]}]}
